From publication PMC11604048, “Constrained TACC3 peptidomimetics for a non-canonical protein–protein interface elucidate allosteric communication in Aurora-A kinase” (Chemical Science, 2024)
Where two headings read alike, the source gives them in different places. *1 amine or outer side, *2 acyl side, *3 side chain or, on linkers, in order; H or OH if unused. Where a SMILES comes first, the peptide text is derived from it. Bridges are numbered along the chain shown (N, C = ends). [ ]: non-standard residue; d: D form. Biphenyl(4,4'-CH2)2 = c1cc(-c2ccc(C[*:2])cc2)ccc1C[*:1]; Maleimide(3,4-diyl) = O=C1NC(=O)C([*:2])=C1[*:1]; Pro(trans-4-F) = O=C(O)[C@@H]1C[C@@H](F)CN1; Phe(4-Br) = N[C@@H](Cc1ccc(Br)cc1)C(=O)O

Molecular target: T1, Aurora-A122-403-C290A/C393A (Homo sapiens, UniProt O14965, C290A/C393A)
T1 construct: Human Aurora-A kinase domain 122-403 wild-type or C290A/ C393A mutant; His tag (pET30TEV vector) (N, cleaved yes); made in house; host or cells: E. coli RIL, co-expressed with lambda phosphatase (Aurora-A); tracer by solid phase synthesis
T1 sequence (O14965 122-403 C290A/C393A): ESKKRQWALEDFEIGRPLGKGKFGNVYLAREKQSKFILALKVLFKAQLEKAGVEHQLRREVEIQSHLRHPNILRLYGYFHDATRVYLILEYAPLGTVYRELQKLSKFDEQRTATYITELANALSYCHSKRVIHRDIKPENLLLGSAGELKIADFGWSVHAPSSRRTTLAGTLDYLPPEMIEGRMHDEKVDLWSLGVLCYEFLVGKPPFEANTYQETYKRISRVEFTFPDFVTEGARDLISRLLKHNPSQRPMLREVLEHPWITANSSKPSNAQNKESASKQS
Test: Competition FA assay against FAM-Ahx-TACC3 522-536 tracer
Assay type: binding
Method: Once completed, the mixtures were transferred into SPPS fritted reaction vessels and washed with H2O (5X, 10 mL, 2 min), DMF (5X, 5mL, 2 min) and DCM (5X, 5 mL, 2 min). The clean resins were dried under vacuum and the cyclic peptides cleaved from the resin following the general procedures described in previous sections. After Et2O precipitation, the crude materials were freeze-dried and redissolved in H2O/MeCN/TFA 90/10/0.1% v/v for preparative HPLC purification.
All disulfide peptide variants (ox) were produced in situ from their free-thiol solid precursors. For this, 2 mg of the pure peptide materials were dissolved in aqueous DMSO 33% v/v to a 10 mM concentration and were left open to air oxidation at room temperature overnight. […]
the peptides were employed for FA competition assays and IC50 evaluation without further additional […]
Fluorescence anisotropy (FA) assays – General information.
All assays were performed using 384-well plates(Greiner Bio-one, UK). […]
produced as described previously.11 All samples were prepared in 25 mM Tris,150 mM NaCl, 5 mM MgCl2, pH= 7.5, unless otherwise stated, and tested in triplicate using an EnVisionTM 2103 MultiLabel plate reader (PerkinElmer; Waltham, MA, USA).The parameters were set as follows: Excitation wavelength = 480 nm (30 nm bandwidth) and emission wavelength = 535 nm (30 nm bandwidth). Measured data were processed and analysed as previously described.12 Specifically, the perpendicular intensity (P) and parallel intensity (S) were subtracted by the control values and used for calculations of intensity and anisotropy using the following Equations 1, 2, 3, 4, and 5:
I= (2PG) + S Eq. (SI − 5)
r = (S − PG) Eq. (SI − 6)
L = r − r௠௜௡ Eq. (SI − 7)
y = (k + x + [FL]) − ඥ(k + x + [FL]2 − 4 ∗ x ∗ [FL]) Eq. (SI − 8)
y = r + r௠௜௡ − r௠௔௫ Eq. (SI − 9)
Where I = total intensity; P = perpendicular intensity; S = parallel intensity; G = instrument factor; r = anisotropy; Lb = ligand bound fraction; λ = change in intensity between bound and unbound states which […]
FA direct binding assays. […]
starting from 700 μM, diluted over 24 points in a 1/2 regime using the FAM-Ahx-labeled peptides at a final fixed concentration of 50 nM per well.
FA competition assays were performed using the same plates and buffer as described above, with the initial […]
14 points in a 1/2 regime. […]
after 4 h of incubation to enable appropriate sample equilibration. To prevent sample oxidation, when sulfhydryl peptides were analyzed DTT was added to the buffer (5 mM). In competition mode, the average anisotropy and the average standard deviation of the values derived from equation SI-6 were calculated and fit to a sigmoidal logistic model (equation SI-9) using Origin 2021. When using peptides for which full […]
For consistency, all the data […]
indicating the corresponding SD. […]

[1] = as E1, oxidised (disulfide) species made in situ from 10 mM stock in aqueous DMSO 33% v/v, air, overnight, WT control (+DMSO) given the same DMSO incubation, mean ± SD, n = 3, read-out: IC50 (ox)
[2] = as E1, Table S3 (mal): maleimide-constrained species, WT value is an individual replica control assay, mean ± SD, n = 3, read-out: IC50 (mal)

Compound: CC(=O)N[C@@H](CCC(=O)O)C(=O)N[C@@H](CCC(=O)O)C(=O)N[C@@H](CO)C(=O)N[C@@H](Cc1ccccc1)C(=O)N[C@@H](CCCNC(=N)N)C(=O)N[C@@H](CC(=O)O)C(=O)N1CCC[C@H]1C(=O)N[C@@H](C)C(=O)N[C@@H](CCC(=O)O)C(=O)N[C@H](C(=O)N[C@H]1CSSC[C@@H](C(=O)N[C@@H](C)C(N)=O)NC(=O)[C@H]([C@@H](C)O)NC(=O)CNC1=O)C(C)C [TACC3 522-536 L532C/G535C (ox)] (Ac-EESFRDPAEVCGTCA-NH2; disulfide 11-14)
- IC50 [1]: ≥ 500 µM

Compound: CC(=O)N[C@@H](CCC(=O)O)C(=O)N[C@@H](CCC(=O)O)C(=O)N[C@@H](CO)C(=O)N[C@@H](Cc1ccccc1)C(=O)N[C@@H](CCCNC(=N)N)C(=O)N[C@@H](CC(=O)O)C(=O)N[C@H]1CSSC[C@@H](C(=O)N[C@@H](CC(C)C)C(=O)NCC(=O)N[C@H](C(=O)NCC(=O)N[C@@H](C)C(N)=O)[C@@H](C)O)NC(=O)[C@H](CCC(=O)O)NC(=O)[C@H](C)NC1=O [TACC3 522-536 P528C/V531C (ox)] (Ac-EESFRDCAECLGTGA-NH2; disulfide 7-10)
- IC50 [1]: ≥ 500 µM

Compound: CC(=O)N[C@H]1CSCc2ccc(cc2)-c2ccc(cc2)CSC[C@@H](C(=O)N[C@@H](C)C(=O)N[C@@H](CCC(=O)O)C(=O)N[C@H](C(=O)N[C@@H](CC(C)C)C(=O)NCC(=O)N[C@H](C(=O)NCC(=O)N[C@@H](C)C(N)=O)[C@@H](C)O)C(C)C)NC(=O)[C@H](CC(=O)O)NC(=O)[C@H](CCCNC(=N)N)NC(=O)[C@H](Cc2ccccc2)NC(=O)[C@H](CO)NC(=O)[C@H](CCC(=O)O)NC1=O [TACC3 522-536 E522C/P528C (Bph)] (Ac-CESFRDCAEVLGTGA-NH2; linker 1-7 via Biphenyl(4,4'-CH2)2)
- IC50 (as E1, Table S3 column (Bph): biphenyl-constrained species, WT value is an individual replica control assay, mean ± SD, n = 3, SD, read-out: IC50 (Bph)): 280 ± 32 µM

Compound: CC(=O)N[C@@H](CCC(=O)O)C(=O)N[C@@H](CCC(=O)O)C(=O)N[C@@H](CO)C(=O)N[C@@H](Cc1ccc(C(F)(F)F)cc1)C(=O)N[C@@H](CCCNC(=N)N)C(=O)N[C@@H](CC(=O)O)C(=O)N1CCC[C@H]1C(=O)N[C@@H](C)C(=O)N[C@@H](CCC(=O)O)C(=O)N[C@H](C(=O)N[C@@H](CC(C)C)C(=O)NCC(=O)N[C@H](C(=O)NCC(=O)N[C@@H](C)C(N)=O)[C@@H](C)O)C(C)C [TACC3 522-536_(4-CF3)525F]
- IC50 (SD, read-out: IC50): 170 ± 17 µM

Compound: CC(=O)N[C@@H](CCC(=O)O)C(=O)N[C@@H](CCC(=O)O)C(=O)N[C@H]1CSC2=C(SC[C@@H](C(=O)N3CCC[C@H]3C(=O)N[C@@H](C)C(=O)N[C@@H](CCC(=O)O)C(=O)N[C@H](C(=O)N[C@@H](CC(C)C)C(=O)NCC(=O)N[C@H](C(=O)NCC(=O)N[C@@H](C)C(N)=O)[C@@H](C)O)C(C)C)NC(=O)[C@H](CCCNC(=N)N)NC(=O)[C@H](Cc3ccccc3)NC1=O)C(=O)NC2=O [TACC3 522-536 S524C/D527C (mal)] (Ac-EECFRCPAEVLGTGA-NH2; linker 3-6 via Maleimide(3,4-diyl) (inferred))
- IC50 [2]: ≥ 500 µM

Compound: CC(=O)N[C@@H](CCC(=O)O)C(=O)N[C@@H](CCC(=O)O)C(=O)N[C@H]1CSSC[C@@H](C(=O)N2CCC[C@H]2C(=O)N[C@@H](C)C(=O)N[C@@H](CCC(=O)O)C(=O)N[C@H](C(=O)N[C@@H](CC(C)C)C(=O)NCC(=O)N[C@H](C(=O)NCC(=O)N[C@@H](C)C(N)=O)[C@@H](C)O)C(C)C)NC(=O)[C@H](CCCNC(=N)N)NC(=O)[C@H](Cc2ccccc2)NC1=O [TACC3 522-536 S524C/D527C (ox)] (Ac-EECFRCPAEVLGTGA-NH2; disulfide 3-6)
- IC50 [1]: ≥ 500 µM

Compound: Ac-EESFRDPAEILGTGA-NH2 [TACC3 522-536_V531I]
- IC50 (read-out: IC50): ≥ 300 µM

Compound: CC(=O)N[C@@H](CCC(=O)O)C(=O)N[C@@H](CCC(=O)O)C(=O)N[C@@H](CO)C(=O)N[C@@H](Cc1ccccc1)C(=O)N[C@@H](CCCNC(=N)N)C(=O)N[C@@H](CC(=O)O)C(=O)N1CCC[C@H]1C(=O)N[C@@H](C)C(=O)N[C@@H](CCC(=O)O)C(=O)N[C@H](C(=O)N[C@@H](CC(C)C)C(=O)N[C@H]1CSSC[C@@H](C(N)=O)NC(=O)CNC(=O)[C@H]([C@@H](C)O)NC1=O)C(C)C [TACC3 522-536 G533C/A536C (ox)] (Ac-EESFRDPAEVLCTGC-NH2; disulfide 12-15)
- IC50 [1]: ≥ 500 µM

Compound: CC(=O)N[C@@H](CC(C)C)C(=O)N[C@@H](CCC(=O)O)C(=O)N[C@@H](CC(C)C)C(=O)N[C@@H](CCCCN)C(=O)N[C@@H](CCC(=O)O)C(=O)N[C@@H](CCC(=O)O)C(=O)N[C@H]1CSCc2ccc(cc2)-c2ccc(cc2)CSC[C@@H](C(=O)N[C@H](C(=O)N[C@@H](CC(C)C)C(N)=O)C(C)C)NC(=O)[C@H](C)NC(=O)[C@@H]2C[C@@H](F)CN2C(=O)[C@H](CC(=O)O)NC(=O)[C@H](CCCNC(=N)N)NC(=O)[C@H](Cc2ccc(Br)cc2)NC1=O [TACC3 518-532-S/E-Bph-BrF/fP] (Ac-LELKEEC[Phe(4-Br)]RD[Pro(trans-4-F)]ACVL-NH2; linker 7-13 via Biphenyl(4,4'-CH2)2)
- IC50 (SD, read-out: IC50): 16 ± 1 µM

Compound: CC(=O)N[C@@H](CCC(=O)O)C(=O)N[C@@H](CCC(=O)O)C(=O)N[C@@H](CO)C(=O)N[C@@H](Cc1ccccc1)C(=O)N[C@@H](CCCNC(=N)N)C(=O)N[C@@H](CC(=O)O)C(=O)N[C@H]1CSC2=C(SC[C@@H](C(=O)N[C@@H](CC(C)C)C(=O)NCC(=O)N[C@H](C(=O)NCC(=O)N[C@@H](C)C(N)=O)[C@@H](C)O)NC(=O)[C@H](CCC(=O)O)NC(=O)[C@H](C)NC1=O)C(=O)NC2=O [TACC3 522-536 P528C/V531C (mal)] (Ac-EESFRDCAECLGTGA-NH2; linker 7-10 via Maleimide(3,4-diyl) (inferred))
- IC50 [2]: ≥ 500 µM

Compound: Ac-LECKEESFCDPAEVL-NH2 (disulfide 3-9 (inferred)) [TACC3 518-532 L520C/R526C (ox), disulfide form of the Cys variant]
- IC50 [1]: ≥ 200 µM

Compound: CC(=O)N[C@@H](CCC(=O)O)C(=O)N[C@@H](CCC(=O)O)C(=O)N[C@@H](CO)C(=O)N[C@@H](Cc1ccccc1)C(=O)N[C@H]1CSC2=C(SC[C@@H](C(=O)N[C@@H](CCC(=O)O)C(=O)N[C@H](C(=O)N[C@@H](CC(C)C)C(=O)NCC(=O)N[C@H](C(=O)NCC(=O)N[C@@H](C)C(N)=O)[C@@H](C)O)C(C)C)NC(=O)[C@@H]3CCCN3C(=O)[C@H](CC(=O)O)NC1=O)C(=O)NC2=O [TACC3 522-536 R526C/A529C (mal)] (Ac-EESFCDPCEVLGTGA-NH2; linker 5-8 via Maleimide(3,4-diyl) (inferred))
- IC50 [2]: ≥ 500 µM

Compound: CC(=O)N[C@@H](CCC(=O)O)C(=O)N[C@@H](CCC(=O)O)C(=O)N[C@@H](CO)C(=O)N[C@@H](CS)C(=O)N[C@@H](CCCNC(=N)N)C(=O)N[C@@H](CC(=O)O)C(=O)N[C@@H](CS)C(=O)N[C@@H](C)C(=O)N[C@@H](CCC(=O)O)C(=O)N[C@H](C(=O)N[C@@H](CC(C)C)C(=O)NCC(=O)N[C@H](C(=O)NCC(=O)N[C@@H](C)C(N)=O)[C@@H](C)O)C(C)C [TACC3 522-536 F525C/P528C (red)] (Ac-EESCRDCAEVLGTGA-NH2)
- IC50 (as E1, free-sulfhydryl (reduced) species, DTT 5 mM in buffer, WT control (+DTT), mean ± SD, n = 3, read-out: IC50 (red)): ≥ 500 µM
